The subject of this experiment is R. solanacearum. It is filed as cell-based, Ralstonia solanacearum. The following applies: ΔrmyA mutant strain (more sensitive than WT); 0.4 mM; 24 hours.

The results in this text go back to patent publication US11649430B2 (priority 2018, dated 2023).

As to `COC1=C(O)C(=O)C2=C(C1=O)[C@H]1N[C@@H](Cc3c[nH]c4ccccc34)C(=O)N1C(C(=O)N[C@@H](CC(C)CO)C(=O)O)C2` (some centres unmarked) [Imizoquin A, imizoquin A], the “R. solanacearum growth (OD)” value is given as “decreases R. solanacearum growth modestly”.
To `COC1=C(O)C(=O)C2=C(C1=O)[C@H]1N[C@@H](Cc3c[nH]c4ccccc34)C(=O)N1C(C(=O)N[C@@H](CC(CO)CO)C(=O)O)C2` (some centres unmarked) [Imizoquin B, imizoquin B] belongs “decreases R. solanacearum growth modestly”.
